The text below walks through data of US8273562B2, “Method for producing 4-hydroxy-L-isoleucine” (Ajinomoto Co., Inc., priority 2006, dated 2012).

One series deals with human pancreatic islets. The conditions noted are these: stimulating effect dependent on plasma glucose concentrations; cited from earlier work.
The test system of series [1] is isolated perfused rat pancreas. As to conditions: stimulating effect dependent on plasma glucose concentrations; cited from earlier work.
The target in the next series is IDO(Lys,23) (Bacillus thuringiensis, UniProt E2GIN1).
Series [2] deals with T1, enzyme in 2-e-2 cell lysate (Bacillus thuringiensis, UniProt E2GIN1).
T1 construct: the collected and washed 2-e-2 cells were disrupted using a mortar; endogenous in cells; host or cells: Bacillus thuringiensis 2-e-2 cell lysate
The experiment in a line: Effect of inhibitors on 4-hydroxyisoleucine production in the 2-e-2 cell lysate. As to conditions: 10 mM inhibitor, pH 6, 30° C., 1 hour. Type of series: biochemical. The protocol:
The cells were cultured in the AMKP medium until OD660 of 3.2 was achieved, then the collected and washed 2-e-2 cells were disrupted using a mortar, and suspended in a buffer (50 mM HEPES (pH 7.0), 10% of glycerol, Complete Mini (Roche)) until a suspension (lysate) is obtained having a protein concentration of about 10 mg/ml including centrifugation precipitates. The centrifugation precipitates were finally suspended in physiological saline of the same volume as the cell lysate. These were each mixed with an equal volume of a 2× dioxygenase reaction mixture (10 mM Ile, […], 10 mM 2-oxoglutaric acid, 10 mM ascorbic acid, 100 mM HEPES (pH 7.0)), and the reaction proceeded at 30° C. for 1 hour. Similarly, resting cells used for the preparation of the cell lysate were washed, and suspended in physiological saline at a concentration 10 times that in the culture broth, the suspension was mixed with an equal volume of the 2× dioxygenase reaction mixture, and the reaction proceeded.
By using a cell lysate prepared from 2-e-2 cells at OD660 of 7 according to the method described in <5>, the effects of inhibitors on the 4-hydroxyisoleucine production were examined. […] The dioxygenase reaction mixture contained 5 mM Ile, 5 mM Fe^2+, 5 mM 2-oxoglutaric acid, 5 mM ascorbic acid, and 100 mM HEPES (pH 6), the reaction temperature was 30° C., and the reaction time was 1 hour. The amount of 4-hydroxyisoleucine which was produced when 10 mM of each inhibitor (EDTA, Cu^2+, Zn^2+) was added to the reaction system was measured. 4-Hydroxyisoleucine was analyzed by the method described in <2>. The isoleucine hydroxylation activity was inhibited by the inhibitors.

The target of another series is T2, L-Ile hydroxylase (Bacillus thuringiensis, UniProt E2GIN1).
T2 construct: made in house; host or cells: Bacillus thuringiensis 2-e-2 (natural producer; enzyme purified by chromatography, not recombinant)
As to the kind of experiment: Effects of inhibitors on 4-hydroxyisoleucine production by purified L-Ile hydroxylase. It counts as biochemical. The conditions noted are these: 10 mM inhibitor; 4-hydroxyisoleucine production with no inhibitor = 100%; pH 6, 30° C., 1 hour. As for the experimental part:
Each fraction was reacted using an Ile hydroxylation activity reaction mixture (100 mM HEPES (pH 6.0), 5 mM L-Ile, 5 mM Fe^2+, 5 mM 2-oxoglutaric acid, 5 mM ascorbic acid at final concentrations) at 30° C. for 30 minutes. The enzyme was inactivated at 100° C., and then the amount of 4-hydroxyisoleucine was quantified by the aforementioned AMKP and HIL separation and measurement method. The 4-hydroxyisoleucine referred to in the subsequent analysis indicates a substance that is substantially composed of the isomer having the same retention time as that of the naturally occurring 4-hydroxyisoleucine. The enzyme activity that produces 1 nmol of HIL per minute was defined as 1 U.
By using L-Ile hydroxylase prepared as described in Example 2, the effect of inhibitors on the production of 4-hydroxyisoleucine were examined. The enzymatic reaction solution contained 5 mM Ile, 5 mM Fe^2+, 5 mM 2-oxoglutaric acid, 5 mM ascorbic acid, and 100 mM HEPES (pH 6), the reaction temperature was 30° C., and the reaction time was 1 hour. The amount of 4-hydroxyisoleucine produced when 10 mM of each inhibitor (EDTA, Cu^2+, Zn^2+) was added to the reaction system was measured. These values are relative to the 4-hydroxyisoleucine production observed with no inhibitor, which was set as 100%. The isoleucine hydroxylation activity was lost in the presence of the inhibitors.

The nature of series [3]: IDO activity assay in crude cell lysate of recombinant E. coli strains. It counts as biochemical, Escherichia coli. As for the experimental part:
2.4. The IDO activity assay in crude cell lysate of TG1[pMW119-IDO(Lys, 23) and TG1[pMW119-IDO(Lys, 32): To investigate the IDO activity in crude cell lysates of recombinant E. coli strains, the following procedures were carried out. Cells from 5 ml of culture were harvested by centrifugation at 4° C., re-suspended in 0.5 ml of buffer A*(50 mM TRIZMA, 5% glycerol, 1 mM EDTA, 1 mM DTT, pH 7 adjusted by HCl) and disrupted by sonication at 4° C. The reaction mixture (50 μl) contained 50 mM HEPES pH 7.0, 5 mM Ile, 0.5 mM α-ketoglutarate, 5 mM ascorbate, 5 mM FeSO4, and an aliquot of the protein preparation. The reaction was incubated at 34° C. for 1 hour with shaking. The synthesized 4HIL was detected using TLC or HPLC analysis as described in Example 4.

A short description of series [4]: Optimum pH, optimum temperature and temperature stability of purified L-Ile hydroxylase. It counts as biochemical, Bacillus thuringiensis. The conditions noted are these: enzyme solution pH 7.0 incubated 1 hour at 0 to 70° C. The protocol:
By using L-Ile hydroxylase prepared as described in Example 2, pH dependency on the producing of the 4-hydroxyisoleucine was evaluated. The enzymatic reaction solution contained 5 mM L-Ile, 5 mM Fe^2+, 5 mM 2-oxoglutaric acid, 5 mM ascorbic acid and 200 mM GTA (pH 3 to 12). The reaction temperature was 30° C. […] Production of a large amount was confirmed at pH 4 to 8, and production of the most 4-hydroxyisoleucine was confirmed at pH 5 to 8.
By using L-Ile hydroxylase prepared as described in Example 2, the optimum temperature of the 4-hydroxyisoleucine production activity was evaluated. The enzymatic reaction solution contained 5 mM Ile, 5 mM Fe^2+, 5 mM 2-oxoglutaric acid, 5 mM ascorbic acid, and 100 mM HEPES (pH 6). […] High production was confirmed for the temperature range of 0 to 40° C.
By using L-Ile hydroxylase prepared as described in Example 2, the temperature stability during production of 4-hydroxyisoleucine was evaluated. The enzyme solution at pH 7.0 was incubated at 0 to 70° C. for 1 hour, and then the Ile hydroxylation activity was measured. The enzymatic reaction solution contained 5 mM Ile, 5 mM Fe^2+, 5 mM 2-oxoglutaric acid, 5 mM ascorbic acid, and 100 mM HEPES (pH 6), and the reaction temperature was 30° C. These values are relative to the storage temperature which produced the maximum amount of hydroxyisoleucine, which was set as 100%. […]

With `C[C@@H]([C@H](C)O)[C@H](N)C(=O)O` [4-Hydroxy-L-isoleucine, (2S,3R,4S)-4-hydroxy-L-isoleucine], the insulinotropic activity result (in the series on human pancreatic islets; in series [1]) was “insulinotropic activity” each time.

For `O=C(O)CN(CCN(CC(=O)O)CC(=O)O)CC(=O)O` [EDTA], at IDO(Lys,23), the “activity of IDO(Lys,23) in the presence of the substance” value is listed as “completely blocked”. The “isoleucine hydroxylation activity in presence of inhibitor” value in series [2] is listed as “inhibited”. For the same molecule, the “Relative activity (%)” value at L-Ile hydroxylase is reported as 0%.

B1: L-Ile hydroxylase: L-isoleucine dioxygenase purified from Bacillus thuringiensis strain 2-e-2, SEQ ID NO: 2 (protein, listed as Bacillus thuringiensis)
chain: KMSGFSIEEKVHEFESKGFLEISNEIFLQEEENHSLLTQAQLDYYNLEDDAYGECRARSYSRYIKYVDSPDYILDNSNDYFQSKEYNYDDGGKVRQFNSINDSFLCNPLIQNIVRFDTEFAFKTNIIDKSKDLIIGLHQVRYKATKERPSFSSPIWLHKDDEPVVFLHLMNLSNTAIGGDNLIANSPREINQFISLKEPLETLVFGQKVFHAVTPLGTECSTEAFRDILLVTFSYKETK
For B1, the “IDO activity in comparison with IDO(Lys,32)” value in series [3] turned out to be 5 times. The “temperature at which enzyme was inactivated” value in series [4] is at least 60 °C.
